Data on one substance can be found in US20090317373A1, “Inhibition of the Anti-FVIII Immune Response” (Institut National De La Sante Et De La Recherche Medicale, priority 2005, published 2009).

The target of the assay is T1, CTLD(4-7)-Fc (construct of the mannose receptor) (Mus musculus, UniProt Q61830).
T1 construct: gift of Dr Luisa Martinez-Pomares, University of Nottingham
Description: ELISA binding of mannose receptor construct CTLD(4-7)-Fc to coated ligands. The conditions noted are these: ELISA plates coated with ligand; FIG. 3c. As for the experimental part:
Constructs of the mannose receptor, CTLD(4-7)-FC and CR-FNII-CTLD(1-3)-CR-Fc, were kindly donated by Dr Luisa Martinez-Pomares, School of Molecular Medical Sciences, Queen's Medical Centre, University of Nottingham, UK. The binding of the constructs to whole recombinant human FVIII and to B domain-deleted recombinant human FVIII was tested either directly by measuring the binding to ELISA plates coated with ligands (mannan was used as a positive control) or indirectly by inhibition tests. The ELISA plates (Nunc; MAXISORP) were coated overnight with dilution series of the FVIII forms (starting at 50 μg/ml) in 154 mM NaCl. TTBS buffer (Tris-HCl 10 mM, pH 7.5, Ca^2+ 10 mM, NaCl 154 mM and 0.05% Tween-20) was used for all the washings. The non-reactive sites were blocked by TBS buffer (TTBS without Tween-20) containing 3% BSA. The plates were then incubated with 2 or 10 μg/ml of the constructs for 2 h at room temperature in TTBS buffer containing 3% BSA. The binding of the MR constructs was detected using a mouse antibody specific for the Fc part of human IgG conjugated to HRP (clone JDC-10, Southern Biotechnology Associates, Inc. AL, USA). […] The absorbance was measured at 492 nm. For the inhibition tests, the plates were coated with each form of FVIII (5.56 μg/ml). […] The absorbance was measured as described above. […]

T1 sequence (Q61830 with tags, fused parts or gaps limits assumed): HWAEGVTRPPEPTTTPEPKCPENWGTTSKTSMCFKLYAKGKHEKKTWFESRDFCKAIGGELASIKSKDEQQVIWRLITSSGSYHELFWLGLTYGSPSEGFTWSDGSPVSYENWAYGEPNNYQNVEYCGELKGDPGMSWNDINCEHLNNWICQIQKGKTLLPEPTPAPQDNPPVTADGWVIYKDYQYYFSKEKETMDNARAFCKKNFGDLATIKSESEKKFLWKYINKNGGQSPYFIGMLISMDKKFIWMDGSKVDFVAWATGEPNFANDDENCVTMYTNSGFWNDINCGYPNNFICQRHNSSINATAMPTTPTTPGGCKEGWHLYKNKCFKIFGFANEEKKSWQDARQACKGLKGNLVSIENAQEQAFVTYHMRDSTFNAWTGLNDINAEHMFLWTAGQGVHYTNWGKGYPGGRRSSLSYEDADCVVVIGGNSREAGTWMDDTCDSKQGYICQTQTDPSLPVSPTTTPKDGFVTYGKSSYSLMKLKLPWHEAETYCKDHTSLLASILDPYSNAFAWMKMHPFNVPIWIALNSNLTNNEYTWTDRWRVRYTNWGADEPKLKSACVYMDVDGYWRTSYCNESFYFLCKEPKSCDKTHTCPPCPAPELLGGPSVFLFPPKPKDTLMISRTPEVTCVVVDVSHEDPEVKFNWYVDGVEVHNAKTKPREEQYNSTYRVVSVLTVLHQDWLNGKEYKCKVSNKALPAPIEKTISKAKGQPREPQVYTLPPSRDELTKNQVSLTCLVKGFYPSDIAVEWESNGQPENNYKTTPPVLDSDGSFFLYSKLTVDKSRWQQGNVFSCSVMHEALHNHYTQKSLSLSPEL

In the case of mannan, the “binding to CTLD(4-7)-Fc” value is “specific binding”.
